These are literature values, as cited in patent US20040014215A1, “Synchronised arabidopsis cell suspensions and uses thereof” (priority 2000, published 2004).

Series [1] has as its system Arabidopsis cell suspension cultures. Conditions: low concentration of cycloheximide, release by washing; cited from earlier work.
The test system of the next series is cell cycle. Conditions: phase of the cell cycle at which cells are arrested; cited from earlier work.
For another series, the system named is tobacco BY-2 cell line. Conditions: BY-2 pre-synchronised with aphidicolin, then propyzamide for a few hours and removal; cited from earlier work.
Series [2] deals with purified CDK/cyclin complexes. As to conditions: cited from earlier work.
Series [3] deals with plant cells derived from a petunia protoplast culture. As to conditions: cited from earlier work.

As for `C[C@@H]1C[C@@H]([C@H](O)CC2CC(=O)NC(=O)C2)C(=O)[C@@H](C)C1` [cycloheximide], in series [1], the peak mitotic index is listed as 9%.

As for `NC(=O)NO` [hydroxyurea], the cell cycle arrest result in the series on cell cycle was “G1/S phase boundary”.

In the case of `C#CC(C)(C)NC(=O)c1cc(Cl)cc(Cl)c1` [propyzamide], the mitotic index in the series with tobacco BY-2 cell line is 80-90%.

On to `CC[C@H](CO)Nc1nc(NCc2ccccc2)c2ncn(C(C)C)c2n1` [roscovitine], for which, in series [2], the “histone H1 kinase activity” value is listed as “inhibit the histone H1 kinase activity”.

With `NC(Cn1ccc(=O)c(O)c1)C(=O)O` (stereo not drawn) [mimosine], the cell cycle arrest result with cell cycle is reported as “early S”. For the same compound, the cell cycle block result in series [3] is “reversible block during G1 and in early/mid S-phase”.
